Source: ChEMBL document CHEMBL4806959, “Antagonistic peptides for frizzled-1 and frizzled-2” (2015)
Calls of active or inactive are those of the source. Residues, ends and D or L forms follow the SMILES beside them.

Tests used:
[1] = target: Frizzled-2 (Rattus norvegicus) (UniProt Q08464); assay: Antagonist activity at Wnt3a-stimulated rat frizzled-2 expressed in CHO cells up to 10 uM incubated for 24 hrs by luciferase reporter gene assay; type: cell-based; settings: dose microM <=10, time 24.0 hrs
Sequence of Frizzled-2 (Rattus norvegicus) (Q08464 29-570 limits assumed): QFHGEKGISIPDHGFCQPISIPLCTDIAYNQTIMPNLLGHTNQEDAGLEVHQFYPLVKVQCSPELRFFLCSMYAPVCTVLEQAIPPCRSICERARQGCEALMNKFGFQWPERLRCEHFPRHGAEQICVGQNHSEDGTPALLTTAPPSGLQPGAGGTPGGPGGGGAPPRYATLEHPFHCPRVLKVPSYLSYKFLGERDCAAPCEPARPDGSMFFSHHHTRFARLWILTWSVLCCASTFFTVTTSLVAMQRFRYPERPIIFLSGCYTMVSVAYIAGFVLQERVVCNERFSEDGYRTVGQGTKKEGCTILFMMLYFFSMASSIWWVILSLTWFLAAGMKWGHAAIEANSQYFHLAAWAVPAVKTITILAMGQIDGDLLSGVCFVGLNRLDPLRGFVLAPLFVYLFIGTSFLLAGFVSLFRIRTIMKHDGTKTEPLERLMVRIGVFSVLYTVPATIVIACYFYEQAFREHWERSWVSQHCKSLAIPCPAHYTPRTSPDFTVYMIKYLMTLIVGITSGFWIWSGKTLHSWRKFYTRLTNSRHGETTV

[2] = target: Frizzled-1 (Homo sapiens) (UniProt Q9UP38); assay: Antagonist activity at Wnt3a-stimulated frizzled-1 (unknown origin) expressed in human HEK293superTOP flash cells at 10 nM incubated for 24 hrs by luciferase reporter gene assay; type: functional, cell-based; settings: HEK293
Sequence of Frizzled-1 (Homo sapiens) (Q9UP38 70-647 limits assumed): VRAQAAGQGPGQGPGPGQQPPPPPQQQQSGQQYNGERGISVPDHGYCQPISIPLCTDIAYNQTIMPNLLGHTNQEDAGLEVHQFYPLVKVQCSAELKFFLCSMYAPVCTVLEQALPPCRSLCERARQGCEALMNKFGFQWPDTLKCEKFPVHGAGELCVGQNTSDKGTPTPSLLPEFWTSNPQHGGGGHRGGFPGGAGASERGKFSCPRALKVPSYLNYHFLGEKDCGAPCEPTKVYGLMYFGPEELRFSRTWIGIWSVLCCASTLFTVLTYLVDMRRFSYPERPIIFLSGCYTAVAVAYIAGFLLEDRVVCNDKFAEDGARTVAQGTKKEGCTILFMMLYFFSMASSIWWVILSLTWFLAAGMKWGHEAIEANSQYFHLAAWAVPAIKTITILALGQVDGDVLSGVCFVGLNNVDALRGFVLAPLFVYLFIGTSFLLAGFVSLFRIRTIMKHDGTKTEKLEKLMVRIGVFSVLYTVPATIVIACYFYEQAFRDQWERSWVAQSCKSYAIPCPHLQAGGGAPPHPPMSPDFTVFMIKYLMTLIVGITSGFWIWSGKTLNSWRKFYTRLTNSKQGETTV

[3] = target: Frizzled-1 (Rattus norvegicus) (UniProt Q08463); assay: Antagonist activity at Wnt3a-stimulated rat frizzled-1 expressed in African green monkey COS7 cells up to 10 uM incubated for 24 hrs by luciferase reporter gene assay; type: cell-based; settings: dose microM <=10, time 24.0 hrs
Sequence of Frizzled-1 (Rattus norvegicus) (Q08463 whole entry): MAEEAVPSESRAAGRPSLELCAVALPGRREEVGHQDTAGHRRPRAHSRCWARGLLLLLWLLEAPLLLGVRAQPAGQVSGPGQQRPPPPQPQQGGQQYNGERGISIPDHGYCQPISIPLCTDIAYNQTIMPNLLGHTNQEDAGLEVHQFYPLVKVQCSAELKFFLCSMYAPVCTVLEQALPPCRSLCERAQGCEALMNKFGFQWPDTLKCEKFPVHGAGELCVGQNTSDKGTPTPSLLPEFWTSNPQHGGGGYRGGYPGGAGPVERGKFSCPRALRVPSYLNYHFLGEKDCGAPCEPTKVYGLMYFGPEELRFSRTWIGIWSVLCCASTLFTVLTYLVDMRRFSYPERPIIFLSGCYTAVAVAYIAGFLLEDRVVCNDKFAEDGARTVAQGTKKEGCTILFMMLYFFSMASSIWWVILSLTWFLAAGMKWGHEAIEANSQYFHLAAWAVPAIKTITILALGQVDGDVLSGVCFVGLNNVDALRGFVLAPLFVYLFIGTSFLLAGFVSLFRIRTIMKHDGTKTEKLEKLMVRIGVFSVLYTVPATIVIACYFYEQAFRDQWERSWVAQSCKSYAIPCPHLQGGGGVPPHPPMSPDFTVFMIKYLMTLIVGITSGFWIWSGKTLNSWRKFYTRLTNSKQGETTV

[4] = target: Frizzled-1 (Rattus norvegicus) (UniProt Q08463); assay: Antagonist activity at Wnt3a-stimulated rat frizzled-1 expressed in CHO cells up to 10 uM incubated for 24 hrs by luciferase reporter gene assay; type: cell-based; settings: dose microM <=10, time 24.0 hrs
[5] = target: Frizzled-2 (Rattus norvegicus) (UniProt Q08464); assay: Antagonist activity at Wnt3a-stimulated rat frizzled-2 expressed in African green monkey COS7 cells up to 10 uM incubated for 24 hrs by luciferase reporter gene assay; type: cell-based; settings: dose microM <=10, time 24.0 hrs
Frizzled-2 = Frizzled-2 (Homo sapiens, UniProt Q14332); assay: Antagonist activity at Wnt3a-stimulated frizzled-2 (unknown origin) expressed in human HEK293superTOP flash cells at 10 nM incubated for 24 hrs by luciferase reporter gene assay; type: functional, cell-based; settings: HEK293
Sequence of Frizzled-2 (Q14332 24-565 limits assumed): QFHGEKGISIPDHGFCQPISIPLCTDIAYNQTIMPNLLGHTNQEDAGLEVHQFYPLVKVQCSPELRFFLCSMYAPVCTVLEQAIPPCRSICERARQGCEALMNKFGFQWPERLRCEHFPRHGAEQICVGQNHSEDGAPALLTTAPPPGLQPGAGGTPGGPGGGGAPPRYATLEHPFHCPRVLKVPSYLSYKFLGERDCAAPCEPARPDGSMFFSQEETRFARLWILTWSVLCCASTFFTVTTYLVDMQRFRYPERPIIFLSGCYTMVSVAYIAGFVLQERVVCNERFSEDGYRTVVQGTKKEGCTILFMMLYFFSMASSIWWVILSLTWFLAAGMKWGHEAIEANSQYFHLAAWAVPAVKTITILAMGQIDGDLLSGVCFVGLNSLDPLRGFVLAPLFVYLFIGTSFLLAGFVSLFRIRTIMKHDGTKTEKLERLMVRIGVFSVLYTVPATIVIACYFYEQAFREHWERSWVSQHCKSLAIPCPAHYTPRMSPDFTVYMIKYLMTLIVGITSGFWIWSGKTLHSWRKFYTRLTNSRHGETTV

Measured: inhibition

CC[C@H](C)[C@H](NC(=O)CNC(=O)[C@H](Cc1cnc[nH]1)NC(=O)[C@H](CO)NC(=O)[C@H](CO)NC(=O)[C@@H](NC(=O)[C@H](CC(N)=O)NC(=O)[C@@H](N)CS)C(C)C)C(=O)N[C@@H](CC(=O)O)C(=O)NCC(=O)N[C@@H](CS)C(=O)N[C@@H](CC(=O)O)C(=O)N[C@@H](CC(C)C)C(=O)O (H-CNVSSHGIDGCDL-OH)
inactive: all assays above

CSCC[C@H](NC(=O)CNC(=O)[C@H](CCC(=O)O)NC(=O)[C@H](CO)NC(=O)[C@@H](NC(=O)[C@H](C)NC(=O)[C@H](CC(N)=O)NC(=O)[C@H](CS)NC(C)=O)[C@@H](C)O)C(=O)N[C@@H](CC(=O)O)C(=O)NCC(=O)N[C@@H](CS)C(=O)N[C@@H](CCC(=O)O)C(=O)N[C@@H](CC(C)C)C(N)=O (Ac-CNATSEGMDGCEL-NH2)
inactive: all assays above

CSCC[C@H](NC(=O)[C@H](C)NC(=O)[C@H](CCC(=O)O)NC(=O)[C@H](CO)NC(=O)[C@H](C)NC(=O)[C@H](CCCCN)NC(=O)[C@H](CC(N)=O)NC(=O)[C@H](CS)NC(C)=O)C(=O)N[C@@H](C)C(=O)NCC(=O)N[C@@H](CS)C(=O)N[C@@H](CCC(=O)O)C(=O)N[C@@H](CC(C)C)C(N)=O (Ac-CNKASEAMAGCEL-NH2)
inactive: all assays above

CSCC[C@H](NC(=O)[C@H](C)NC(=O)[C@H](CCC(=O)O)NC(=O)[C@H](CO)NC(=O)[C@@H](NC(=O)[C@H](CCCCN)NC(=O)[C@H](CC(N)=O)NC(=O)[C@H](CS)NC(C)=O)[C@@H](C)O)C(=O)N[C@@H](CC(=O)O)C(=O)NCC(=O)N[C@@H](CS)C(=O)N[C@@H](CCC(=O)O)C(=O)N[C@@H](CC(C)C)C(N)=O (Ac-CNKTSEAMDGCEL-NH2)
inactive: all assays above

CSCC[C@H](NC(=O)CNC(=O)[C@H](CCC(=O)O)NC(=O)[C@H](CO)NC(=O)[C@@H](NC(=O)[C@H](CCCCN)NC(=O)[C@H](CC(N)=O)NC(=O)[C@H](CS)NC(C)=O)[C@@H](C)O)C(=O)N[C@@H](CC(=O)O)C(=O)NCC(=O)N[C@@H](CS)C(=O)N[C@@H](C)C(=O)N[C@@H](C)C(N)=O (Ac-CNKTSEGMDGCAA-NH2)
inactive: all assays above

CSCC[C@H](NC(=O)CNC(=O)[C@H](C)NC(=O)[C@H](CO)NC(=O)[C@@H](NC(=O)[C@H](CCCCN)NC(=O)[C@H](CC(N)=O)NC(=O)[C@H](CS)NC(C)=O)[C@@H](C)O)C(=O)N[C@@H](CC(=O)O)C(=O)NCC(=O)N[C@@H](CS)C(=O)N[C@@H](CCC(=O)O)C(=O)N[C@@H](CC(C)C)C(N)=O (Ac-CNKTSAGMDGCEL-NH2)
inactive: all assays above
